Measurements from ChEMBL document CHEMBL1146831, “Binding of a homologous series of anthraquinones to DNA” (Bioorg Med Chem Lett, 2004).

Key:
Nucleic Acid [1] = assay: Binding constant towards GC-rich calf thymus DNA hairpin; format: nucleic-acid assay; details: Bos taurus
Nucleic Acid [2] = assay: Binding constant towards AT-rich calf thymus DNA hairpin; format: nucleic-acid assay; details: Bos taurus

| K (Nucleic Acid [1]) [M⁻¹] | K (Nucleic Acid [2]) [M⁻¹] | Compound |
| --- | --- | --- |
| 90000 | 190000 | COCCOCCOCCOCCCNCCC(=O)Nc1ccc2c(c1)C(=O)c1ccc(NC(=O)CCNCCCOCCOCCOCCOC)cc1C2=O |
| 220000 | 550000 | COCCOCCCNCCC(=O)Nc1ccc2c(c1)C(=O)c1ccc(NC(=O)CCNCCCOCCOC)cc1C2=O |
| 310000 | 760000 | COCCCNCCC(=O)Nc1ccc2c(c1)C(=O)c1ccc(NC(=O)CCNCCCOC)cc1C2=O |
| 110000 | 250000 | COCCOCCOCCCNCCC(=O)Nc1ccc2c(c1)C(=O)c1ccc(NC(=O)CCNCCCOCCOCCOC)cc1C2=O |
